The term GI50 denotes the concentration that inhibits growth by half.

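Cultured in 96-well plates, cells were exposed to test compound for 48 hours across five concentrations. At the GI50, growth is halved.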 Activity calls are given as the source filed them. No stated cut-off is given here; in the data, active = GI50 up to about 1.1 µM and inactive = higher.

Among the test systems are MDA-N; OVCAR-5; COLO 205; ACHN; Malme-3M; HOP-92; MOLT-4; NCI/ADR-RES; SK-MEL-2; SNB-75; SR; OVCAR-4; SF-539; NCI-H226; HCT-15; UACC-62; HCT-116; OVCAR-3.
What all share (assay): DTP human tumour cell line panel, 48 h

Take `O=C1Cc2c(-c3ccccc3)cc(-c3ccc(Cl)cc3)nc2-c2ccccc2N1`: the GI50 with MDA-N was 6.9 µM (inactive); with OVCAR-5 it was 11 µM (inactive); in the experiment on COLO 205, 2.96 µM (inactive); with ACHN it was 2.4 µM (inactive); with Malme-3M it was 5.02 µM (inactive); in the experiment with HOP-92, 2.3 µM (inactive). In addition, the GI50 was 7.8 µM (inactive) in the experiment on MOLT-4; 3.14 µM (inactive) in the experiment with NCI/ADR-RES; 17.1 µM (inactive) in the experiment on SK-MEL-2; 2.03 µM (inactive) in the experiment on SNB-75; 10 µM (inactive) in the experiment on SR; 1.7 µM (inactive) with OVCAR-4. Further, the GI50 was 5.83 µM (inactive) in the experiment on SF-539; 3.07 µM (inactive) in the experiment on NCI-H226; 6.68 µM in the experiment with HCT-15; 5.57 µM (inactive) in the experiment on UACC-62; 1.98 µM (inactive) in the experiment on HCT-116; 8.73 µM (inactive) with OVCAR-3.

For `COC(=O)Nc1nc2cc(Oc3ccc4nc(NC(=O)OC)[nH]c4c3)ccc2[nH]1`, the GI50 in the experiment on MDA-N was 0.105 µM (active); in the experiment on OVCAR-5, 9.02 µM (inactive); with COLO 205, 0.708 µM (active); in the experiment with Malme-3M, 0.61 µM (active); in the experiment with HOP-92, 6.56 µM (inactive); in the experiment with MOLT-4, 1 µM (active). Moreover, the GI50 is 4.33 µM (inactive) with NCI/ADR-RES; 1.34 µM (inactive) in the experiment on SK-MEL-2; 0.701 µM (active) in the experiment on SNB-75; 0.252 µM (active) in the experiment with SR; 1.77 µM (inactive) with OVCAR-4; 0.381 µM (active) in the experiment on SF-539. In addition, the GI50 in the experiment on NCI-H226 is 0.925 µM (active); in the experiment with HCT-15 it was 1.28 µM; with HCT-116, 0.438 µM (active); in the experiment on OVCAR-3, 0.149 µM (active).

For the compound `C#C[C@]1(O)[C@@H](CO)O[C@@H](n2ccc(N)nc2=O)[C@@H]1O`, the GI50 with MDA-N is 0.0121 µM (active); in the experiment with OVCAR-5, 0.209 µM (active); with COLO 205, < 0.0111 µM (active); with ACHN, < 0.01 µM (active); with Malme-3M it was 0.0337 µM (active); in the experiment with HOP-92 it was 0.11 µM (active). Further, the GI50 was 0.0101 µM (active) in the experiment with MOLT-4; < 0.0317 µM (active) with NCI/ADR-RES; 0.0435 µM (active) with SK-MEL-2; 0.0327 µM (active) in the experiment on SNB-75; < 0.01 µM (active) with SR; 0.18 µM (active) with OVCAR-4. For the same compound, the GI50 with SF-539 is 0.111 µM (active); in the experiment on NCI-H226, 0.0308 µM (active); in the experiment with HCT-15, less than 0.01 µM; in the experiment on UACC-62, 0.0352 µM (active); in the experiment on HCT-116, < 0.0435 µM (active); in the experiment with OVCAR-3, 0.132 µM (active).

For `COC(=O)[C@@H]1C=C[C@H](OC2OC(COC(C)=O)C(OC(C)=O)C(OC(C)=O)C2OC(C)=O)n2c(=O)c3ccccc3c(=O)n21` (stereo partly specified), the GI50 in the experiment with MDA-N was > 10 µM (inactive); in the experiment on OVCAR-5, 16 µM (inactive); with COLO 205, 8.65 µM (inactive); in the experiment on ACHN it was 11.7 µM (inactive); in the experiment with Malme-3M, 16.9 µM (inactive); in the experiment with HOP-92, 10.1 µM (inactive). Moreover, the GI50 in the experiment on MOLT-4 is 11.8 µM (inactive); in the experiment with NCI/ADR-RES it was 19.8 µM (inactive); with SK-MEL-2, 9.16 µM (inactive); in the experiment on SNB-75, 6.71 µM (inactive); in the experiment on SR, 4.82 µM (inactive); in the experiment on OVCAR-4, 16.6 µM (inactive). Further, the GI50 was 15.7 µM (inactive) in the experiment on SF-539; 19.7 µM (inactive) in the experiment on NCI-H226; 10.8 µM in the experiment with HCT-15; 9.93 µM (inactive) in the experiment on UACC-62; 10.9 µM (inactive) in the experiment on HCT-116; 10.4 µM (inactive) with OVCAR-3.

For `O=C1Sc2ccc(Br)cc2C(=O)Sc2ccccc21`, the GI50 in the experiment on MDA-N was 8.17 µM (inactive); in the experiment with OVCAR-5 it was 17.9 µM (inactive); in the experiment on COLO 205, 13.2 µM (inactive); with ACHN it was 16.4 µM (inactive); in the experiment with Malme-3M, 2.24 µM (inactive); with HOP-92, 13.5 µM (inactive). Further, the GI50 in the experiment on MOLT-4 was 4.34 µM (inactive); with NCI/ADR-RES, 16 µM (inactive); with SK-MEL-2, 18.8 µM (inactive); with SNB-75 it was 12.5 µM (inactive); with SR it was 1.06 µM (active); in the experiment with OVCAR-4 it was 13.2 µM (inactive). The GI50 was 11.6 µM (inactive) with SF-539; 18.5 µM (inactive) in the experiment with NCI-H226; 15.7 µM in the experiment with HCT-15; 16.8 µM (inactive) in the experiment with UACC-62; 13 µM (inactive) in the experiment with HCT-116; 12.5 µM (inactive) with OVCAR-3.

As to `CN(C)c1ccc(C2CC(c3ccc4ccccc4c3O)=NN2)cc1` (stereo unspecified), the GI50 with MDA-N is 26.5 µM (inactive); with OVCAR-5, 80.7 µM (inactive); with COLO 205, 19.5 µM (inactive); in the experiment on ACHN, 38.4 µM (inactive); in the experiment with Malme-3M it was 51.1 µM (inactive); in the experiment on HOP-92 it was 29.4 µM (inactive). Moreover, the GI50 in the experiment with MOLT-4 was 20.3 µM (inactive); with NCI/ADR-RES, 30.3 µM (inactive); in the experiment with SK-MEL-2, 35.7 µM (inactive); in the experiment on SNB-75, 37 µM (inactive); with SR it was 14.1 µM (inactive); in the experiment on OVCAR-4 it was 94.4 µM (inactive). In addition, the GI50 is 24.5 µM (inactive) in the experiment on SF-539; 41.5 µM (inactive) with NCI-H226; 44 µM with HCT-15; 36.2 µM (inactive) with UACC-62; 31.7 µM (inactive) in the experiment on HCT-116; 18 µM (inactive) with OVCAR-3.

(Values after ChEMBL document CHEMBL1201862, “PubChem BioAssay data set” (2004).)
